Data published in patent US9873680B2 (Gilead Sciences, Inc., priority 2014, dated 2018).
Like-named read-outs stand apart in the source and are kept apart here.

Key:
[1] = Test B: Cytotoxicity Assay; format: cell-based; conditions: human, uninfected MT-4 cells, CellTiter-Glo
Description: Test B: Cytotoxicity Assay Compound cytotoxicity and the corresponding CC50 values was determined using the same protocol as described in the antiviral assay (Test A) except that uninfected cells were used.

HIV-IIIb = test: Test A: Antiviral Assay in MT4 Cells; format: cell-based, HIV-1
Summary of the method: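 MT-4 cells were preinfected with HIV-IIIb […]. Cell viability, as protection from viral cytopathic effect, was read by CellTiter-Glo chemiluminescence.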

[2] = Human immunodeficiency virus 1, MT4, 120 h, 0.2 μM drug concentration, MT-4 cells infected with HIV-IIIb, 5 days, values normalized to 100%, average over time, read-out: % inhibition at 0.2 μM (percent inhibition of virus-induced cell killing)

Row | Structure (SMILES) | CC50 at 5 days [1] [µM] | inhibition at 0.2 µM (HIV-IIIb; [2]) [%] | inhibition at 0.2 µM (HIV-IIIb; Human immunodeficiency virus 1, IIIB, MT4, 0.2 μM drug concentration, comparison with previously published compounds, read-out: Response at 0.2 μM (percent inhibition of virus-induced cell killing)) [%] | inhibition at 2 µM (HIV-IIIb; Human immunodeficiency virus 1, IIIB, MT4, 2 μM drug concentration, comparison with previously published compounds, read-out: Response at 2 μM (percent inhibition of virus-induced cell killing)) [%] | inhibition at 0.2 µM (HIV-IIIb; Human immunodeficiency virus 1, IIIB, MT4, 120 h, read-out: % inhibition at 0.2 μM (percent inhibition of virus-induced cell killing)) [%]
1 | Cn1ccnc1C(C)(C)C#Cc1ccc(-c2ccc(Cl)c3c(NS(C)(=O)=O)nn(C)c23)c([C@H](Cc2cc(F)cc(F)c2)NC(=O)Cn2nc(C(F)F)c3c2C(F)(F)[C@@H]2C[C@H]32)n1 [Compound 92B, N—((S)-1-(3-(4-chloro-1-methyl-3-(methylsulfonamido)-1H-indazol-7-yl)-6-(3-methyl-3-(1-methyl-1H-imidazol-2-yl)but-1-yn-1-yl)pyridin-2-yl)-2-(3,5-difluorophenyl)ethyl)-2-((3bS,4aR)-3-(difluoromethyl)-5,5-difluoro-3b,4,4a,5-tetrahydro-1H-cyclopropa[3,4]cyclopenta[1,2-c]pyrazol-1-yl)acetamide] | 25.9 | 100 | – | – | –
2 | Cn1nc(NS(C)(=O)=O)c2c(Cl)ccc(-c3ccc(C#CC4(C)CNCCO4)nc3[C@H](Cc3cc(F)cc(F)c3)NC(=O)Cn3nc(C(F)F)c4c3C(F)(F)[C@@H]3C[C@H]43)c21 (stereo partly drawn) [Compound 77, N-((1S)-1-(3-(4-chloro-1-methyl-3-(methylsulfonamido)-1H-indazol-7-yl)-6-((2-methylmorpholin-2-yl)ethynyl)pyridin-2-yl)-2-(3,5-difluorophenyl)ethyl)-2-((3bS,4aR)-3-(difluoromethyl)-5,5-difluoro-3b,4,4a,5-tetrahydro-1H-cyclopropa[3,4]cyclopenta[1,2-c]pyrazol-1-yl)acetamide] | 7.7 | 90 | – | – | –
3 | Cn1nc(NS(C)(=O)=O)c2c(Cl)ccc(-c3ccc(C#CC(C)(O)Cn4cncn4)nc3[C@H](Cc3cc(F)cc(F)c3)NC(=O)Cn3nc(C(F)(F)F)c4c3C(F)(F)[C@@H]3C[C@H]43)c21 (stereo partly drawn) [Compound 70B, N-((1S)-1-(3-(4-chloro-1-methyl-3-(methylsulfonamido)-1H-indazol-7-yl)-6-(3-hydroxy-3-methyl-4-(1H-1,2,4-triazol-1-yl)but-1-yn-1-yl)pyridin-2-yl)-2-(3,5-difluorophenyl)ethyl)-2-((3bS,4aR)-5,5-difluoro-3-(trifluoromethyl)-3b,4,4a,5-tetrahydro-1H-cyclopropa[3,4]cyclopenta[1,2-c]pyrazol-1-yl)acetamide] | 14.2 | 96 | – | – | –
4 | Cn1nc(NS(C)(=O)=O)c2c(Cl)ccc(-c3ccc(C#CC4(O)CCC4)nc3[C@H](Cc3cc(F)cc(F)c3)NC(=O)Cn3nc(C(F)(F)F)c4c3C(F)(F)[C@@H]3C[C@H]43)c21 [Compound 61C, N—((S)-1-(3-(4-chloro-1-methyl-3-(methylsulfonamido)-1H-indazol-7-yl)-6-((1-hydroxycyclobutyl)ethynyl)pyridin-2-yl)-2-(3,5-difluorophenyl)ethyl)-2-((3bS,4aR)-5,5-difluoro-3-(trifluoromethyl)-3b,4,4a,5-tetrahydro-1H-cyclopropa[3,4]cyclopenta[1,2-c]pyrazol-1-yl)acetamide] | 7.89 | 93 | – | – | –
5 | O=C(Cn1nc(C(F)F)c2c1C(F)(F)CCC2(F)F)N[C@@H](Cc1cc(F)cc(F)c1)c1ncc(C#CC2CC2)cc1-c1ccc2c(c1)C(=O)NC2 [Compound 2G, (S)—N-(1-(5-(cyclopropylethynyl)-3-(3-oxoisoindolin-5-yl)pyridin-2-yl)-2-(3,5-difluorophenyl)ethyl)-2-(3-(difluoromethyl)-4,4,7,7-tetrafluoro-4,5,6,7-tetrahydro-1H-indazol-1-yl)acetamide] | 38.4 | 0 | 0 | 6 | –
6 | CN1CC(NC(C)(C)C#Cc2ccc(-c3ccc(Cl)c4c(NS(C)(=O)=O)nn(C)c34)c([C@H](Cc3cc(F)cc(F)c3)NC(=O)Cn3nc(C(F)(F)F)c4c3C(F)(F)[C@@H]3C[C@H]43)n2)C1 [Compound 42, N—((S)-1-(3-(4-chloro-1-methyl-3-(methylsulfonamido)-1H-indazol-7-yl)-6-(3-methyl-3-((1-methylazetidin-3-yl)amino)but-1-yn-1-yl)pyridin-2-yl)-2-(3,5-difluorophenyl)ethyl)-2-((3bS,4aR)-5,5-difluoro-3-(trifluoromethyl)-3b,4,4a,5-tetrahydro-1H-cyclopropa[3,4]cyclopenta[1,2-c]pyrazol-1-yl)acetamide] | 2.77 | 90 | – | – | –
7 | Cn1nc(NS(C)(=O)=O)c2c(Cl)ccc(-c3ccc(C#CC4(O)COC4)nc3[C@H](Cc3cc(F)cc(F)c3)NC(=O)Cn3nc(C(F)(F)F)c4c3C(F)(F)[C@@H]3C[C@H]43)c21 [Compound 38, N—((S)-1-(3-(4-chloro-1-methyl-3-(methylsulfonamido)-1H-indazol-7-yl)-6-((3-hydroxyoxetan-3-yl)ethynyl)pyridin-2-yl)-2-(3,5-difluorophenyl)ethyl)-2-((3bS,4aR)-5,5-difluoro-3-(trifluoromethyl)-3b,4,4a,5-tetrahydro-1H-cyclopropa[3,4]cyclopenta[1,2-c]pyrazol-1-yl)acetamide] | 14.3 | 97 | – | – | –
8 | Cn1nc(NS(C)(=O)=O)c2c(Cl)ccc(-c3ccc(C#CC4(CO)CC4)nc3[C@H](Cc3cc(F)cc(F)c3)NC(=O)Cn3nc(C(F)F)c4c3C(F)(F)[C@@H]3C[C@H]43)c21 [Compound 94B, N—((S)-1-(3-(4-chloro-1-methyl-3-(methylsulfonamido)-1H-indazol-7-yl)-6-((1-(hydroxymethyl)cyclopropyl)ethynyl)pyridin-2-yl)-2-(3,5-difluorophenyl)ethyl)-2-((3bS,4aR)-3-(difluoromethyl)-5,5-difluoro-3b,4,4a,5-tetrahydro-1H-cyclopropa[3,4]cyclopenta[1,2-c]pyrazol-1-yl)acetamide] | 12.4 | 91 | – | – | –
9 | Cn1nc(NS(C)(=O)=O)c2c(Cl)ccc(-c3ccc(C#CC4(O)CC(F)(F)C4)nc3[C@H](Cc3cccc(F)c3)NC(=O)Cn3nc(C(F)(F)F)c4c3C(F)(F)[C@@H]3C[C@H]43)c21 [Compound 102, N—((S)-1-(3-(4-chloro-1-methyl-3-(methylsulfonamido)-1H-indazol-7-yl)-6-((3,3-difluoro-1-hydroxycyclobutyl)ethynyl)pyridin-2-yl)-2-(3-fluorophenyl)ethyl)-2-((3bS,4aR)-5,5-difluoro-3-(trifluoromethyl)-3b,4,4a,5-tetrahydro-1H-cyclopropa[3,4]cyclopenta[1,2-c]pyrazol-1-yl)acetamide] | 7.17 | 88 | – | – | –
10 | O=C(Cn1nc(C(F)F)c2c1C(F)(F)CCC2(F)F)N[C@@H](Cc1cc(F)cc(F)c1)c1nc(C#Cc2ccccc2)ncc1-c1ccc2c(c1)C(=O)NC2 [Compound 8, (S)-2-(3-(difluoromethyl)-4,4,7,7-tetrafluoro-4,5,6,7-tetrahydro-1H-indazol-1-yl)-N-(2-(3,5-difluorophenyl)-1-(5-(3-oxoisoindolin-5-yl)-2-(phenylethynyl)pyrimidin-4-yl)ethyl)acetamide] | > 53.2 | – | – | – | 102
11 | Cn1nc(NS(C)(=O)=O)c2c(Cl)ccc(-c3ccc(C#CC4COCCN4)nc3[C@H](Cc3cc(F)cc(F)c3)NC(=O)Cn3nc(C(F)(F)F)c4c3C(F)(F)[C@@H]3C[C@H]43)c21 (stereo partly drawn) [Compound 49, N-((1S)-1-(3-(4-chloro-1-methyl-3-(methylsulfonamido)-1H-indazol-7-yl)-6-(morpholin-3-ylethynyl)pyridin-2-yl)-2-(3,5-difluorophenyl)ethyl)-2-((3bS,4aR)-5,5-difluoro-3-(trifluoromethyl)-3b,4,4a,5-tetrahydro-1 I-cyclopropa[3,4]cyclopenta[1,2-c]pyrazol-1-yl)acetamide] | 20.6 | 92 | – | – | –
12 | Cn1nc(NS(C)(=O)=O)c2c(Cl)ccc(-c3ccc(C#CC(C)(C)c4ncc[nH]4)nc3[C@H](Cc3cc(F)cc(F)c3)NC(=O)Cn3nc(C(F)F)c4c3C(F)(F)[C@@H]3C[C@H]43)c21 [Compound 91F, N—((S)-1-(6-(3-(1H-imidazol-2-yl)-3-methylbut-1-yn-1-yl)-3-(4-chloro-1-methyl-3-(methylsulfonamido)-1H-indazol-7-yl)pyridin-2-yl)-2-(3,5-difluorophenyl)ethyl)-2-((3bS,4aR)-3-(difluoromethyl)-5,5-difluoro-3b,4,4a,5-tetrahydro-1H-cyclopropa[3,4]cyclopenta[1,2-c]pyrazol-1-yl)acetamide] | 14.6 | 98 | – | – | –
13 | O=C(Cn1nc(C(F)(F)F)c2c1C(F)(F)[C@@H]1C[C@H]21)N[C@@H](Cc1cc(F)cc(F)c1)c1nc(C#Cc2ccc(=O)[nH]c2)ccc1-c1ccc2c(c1)C(=O)NC2 [Compound 12, 2-((3bS,4aR)-5,5-difluoro-3-(trifluoromethyl)-3b,4,4a,5-tetrahydro-1H-cyclopropa[3,4]cyclopenta[1,2-c]pyrazol-1-yl)-N—((S)-2-(3,5-difluorophenyl)-1-(6-((6-oxo-1,6-dihydropyridin-3-yl)ethynyl)-3-(3-oxoisoindolin-5-yl)pyridin-2-yl)ethyl)acetamide] | 7.7 | 70 | – | – | –
14 | Cn1nc(NS(C)(=O)=O)c2c(Cl)ccc(-c3ccc(C#CC4(O)CCOC4)nc3[C@H](Cc3cc(F)cc(F)c3)NC(=O)Cn3nc(C(F)(F)F)c4c3C(F)(F)[C@@H]3C[C@H]43)c21 (stereo partly drawn) [Compound 46, N-((1S)-1-(3-(4-chloro-1-methyl-3-(methylsulfonamido)-1H-indazol-7-yl)-6-((3-hydroxytetrahydrofuran-3-yl)ethynyl)pyridin-2-yl)-2-(3,5-difluorophenyl)ethyl)-2-((3bS,4aR)-5,5-difluoro-3-(trifluoromethyl)-3b,4,4a,5-tetrahydro-1H-cyclopropa[3,4]cyclopenta[1,2-c]pyrazol-1-yl)acetamide] | 17.6 | 96 | – | – | –
